The source of these data is patent US8071786B2, “Indole compounds useful as serotonin selective agents” (Galenea Corp., priority 2005, dated 2011).

One data set concerns the target T1, human 5-HT2C-INI (Homo sapiens, UniProt P28335).
T1 construct: expressed in transfected cells
T1 sequence (P28335 33-458): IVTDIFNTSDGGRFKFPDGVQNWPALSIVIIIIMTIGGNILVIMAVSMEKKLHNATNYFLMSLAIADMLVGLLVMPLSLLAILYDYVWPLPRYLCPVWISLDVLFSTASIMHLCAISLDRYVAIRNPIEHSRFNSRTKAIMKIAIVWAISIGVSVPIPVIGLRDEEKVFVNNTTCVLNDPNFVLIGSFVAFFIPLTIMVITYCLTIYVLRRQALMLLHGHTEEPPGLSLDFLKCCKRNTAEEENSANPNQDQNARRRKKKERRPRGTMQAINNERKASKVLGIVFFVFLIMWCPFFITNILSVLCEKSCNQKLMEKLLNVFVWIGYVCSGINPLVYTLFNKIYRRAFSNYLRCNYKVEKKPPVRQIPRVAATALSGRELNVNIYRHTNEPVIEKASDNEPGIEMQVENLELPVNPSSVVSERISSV
The experiment in a line: Phosphoinositide hydrolysis functional assay. The following applies: for EC50: activation of phosphoinositide hydrolysis, stably expressed receptor; for Emax: value in brackets, read-out: percent Vmax relative to serotonin at 100%, 5-HT2C (converted). In kind it is cell-based. The method, then: (§1) Phosphoinositide hydrolysis assays were performed with stably (5-HT2A, 5-HT2C) or transiently (5-HT2B) expressed receptors plated in 24-well culture plates. Transfected cells were loaded with […] overnight in inositol-free DMEM without serum. The next day, phosphate accumulation assays were performed in a modified Krebs-bicarbonate buffer. Kact (nmol/L) and percent Vmax (relative to 5-HT) values were calculated (Roth, B. L., Shoham, M., Choudhary, M., Khan, N. “Identification of Conserved Aromatic Residues Essential for Agonist Binding and Second Messenger Production at 5-Hydroxytryptamine 2A Receptors” Mol. Pharmacol. 1997, 52, 259; Roth, B. L., Choudhary, M., Khan, N., Uluer, A. “High-affinity Agonist Binding is not Sufficient for Agonist Efficacy at 5-Hydroxytryptamine 2A Receptors: Evidence in Favor of a Modified Ternary Complex Model” J. Pharmacol. Exp. Ther. 1997, 280, 576).
(§2) Functional Assay (EC50) in nM. Data represent mean EC50 values for activation of phospho-inositide hydrolysis in cells expressing human 5-HT2A, 5-HT2B or 5-HT2C-INI receptors, relative to serotonin at 100%. When the standard deviation is given, N≧3.

For data set [1], the target named is T2, 5-HT2A (Homo sapiens, UniProt P28223). The experiment in a line: Phosphoinositide hydrolysis functional assay. It is filed as cell-based. Also on record: expressed in transfected cells. Particulars: for EC50: activation of phosphoinositide hydrolysis, stably expressed receptor; for percent Vmax relative to serotonin at 100%, 5-HT2A: value in brackets. The method, then:
as §1, §2

Data set [2] concerns the target T3, 5-HT2B (Homo sapiens, UniProt P41595). The experiment in a line: Phosphoinositide hydrolysis functional assay. In kind it is cell-based. Also on record: expressed in transfected cells. The method, then: as §1, §2
The target of a further data set is T4, 5-HT2C (Homo sapiens, UniProt P28335).
T4 sequence (P28335 33-458): T1 sequence (P28335 33-458)
Kind of data set: Receptor binding, competition binding assay. Here is the method:
(§3) For initial screens, a 10 micromolar concentration of each compound (dissolved in 10% DMSO) was incubated with the appropriate receptor preparation and percent inhibition determined for duplicate determinations each performed in duplicate. Where >50% inhibition of specific binding was measured, Ki determinations were then measured by competition binding assays in which concentrations from 1 to 100,000 nM were incubated in duplicate. For each Ki value the data represent the mean+/−SD of computer-derived estimates for N=4 separate determinations, as described (Rothman, R., Baumann, M., Savage, J., Rauser, L., McBride, A., Hufeisen, S., Roth, B. L. “Evidence for Possible Involvement of 5-HT2B Receptors in the Cardiac Valvulopathy Associated with Fenfluramine and other Serotonergic Medications” Circulation 2000, 102, 2836; Roth, B. L., Shoham, M., Choudhary, M., Khan, N. “Identification of Conserved Aromatic Residues Essential for Agonist Binding and Second Messenger Production at 5-Hydroxytryptamine 2A Receptors” Mol. Pharmacol. 1997, 52, 259; Roth, B. L., Choudhary, M., Khan, N., Uluer, A. “High-affinity Agonist Binding is not Sufficient for Agonist Efficacy at 5-Hydroxytryptamine 2A Receptors: Evidence in Favor of a Modified Ternary Complex Model” J. Pharmacol. Exp. Ther. 1997, 280, 576).
(§4) Receptor binding (Ki) in nM. When the standard deviation is given N≧3.

Data set [3] has as its target T2, 5-HT2A. Kind of data set: Receptor binding, competition binding assay. The method, then: as §3, §4
Data set [4] deals with T3, 5-HT2B. The experiment in a line: Receptor binding, competition binding assay. The method, then: as §3, §4
Data set [5] in a line: Appetite suppression in mice, acute assay (food consumption). In kind it is in vivo. Particulars: for Mean food consumption 60 min. after injection: g (±SEM) Compound / Mean food consumption 90 min. after injection: g (±SEM) Compound: mice deprived of food 18 hours. Here is the method:
Mice were deprived of food, but not water, for 18 hours. They were then injected i.p. with test compounds dissolved in 0.9% NaCl containing 1 mg per ml ascorbic acid for protection against oxidation. Each mouse was placed in an individual cage for 30 minutes and then presented with a small petri dish containing a gel made from gelatin, powdered milk and sucrose. The dish was weighed at zero time and at 15-minute intervals for the next hour in order to quantitate food consumption. Controls were injected with saline-ascorbic acid; ±fenfluramine was used as an active control. Control consumption generally ranged from 1.5 to 2.0 grams.

The subject of data set [6] is itch-associated scratching induced by serotonin. The experiment in a line: Animal model for OCD: serotonin-induced scratching. The following applies: for Number of Scratches as Percentage of Control: inducer Serotonin. It is filed as in vivo, male Swiss-Webster mice. The method, then: The 5-HT action is at least partly mediated by 5-HT2 receptors in the skin, as shown by blocking with specific antagonists (Yamaguchi, T., Nagasawa, T., Satoh, M., Kuraishi, Y. “Itch-associated Response Induced by Intradermal Serotonin Through 5-HT2 Receptors in Mice” Neurosci. Res. 1999, 35, 77). The effect of test compounds on itch-associated scratching in the mice may indicate their action on 5-HT receptors, and a study was carried out as an animal model for OCD. The subjects were male Swiss-Webster mice, 4-6 weeks old, weighing 25-45 g. Mice were housed 5 per cage, given free access to standard mouse food and water except during experiments, and maintained in a temperature-controlled room (70° F.). Serotonin and all test drugs were made up with ascorbic acid to protect against oxidation. Two mice, one a control, the other experimental, were tested each time. Each mouse was separately placed into a plexiglas box.
Mice were injected subcutaneously between the shoulder blades with either 0.1 ml of serotonin, 0.4 mg per ml in 0.15 M saline plus ascorbic acid, 1 mg/ml, or compound 48-80 (the copolymer product of N-methyl-p-methoxyphenethylamine with formaldehyde), 1.0 mg/ml in saline plus ascorbic acid. Test compounds were injected i.p. 5 minutes before the inducer. The cumulative number of scratches with a hind leg was recorded at 5 minute intervals for 30 minutes. One saline injected control and one test animal were tested together in each assay.

[7] abbreviates: activation of phosphoinositide hydrolysis, transiently expressed receptor.

Marks after values point to notes of the source that are not given here.

T3 sequence (P41595 whole entry): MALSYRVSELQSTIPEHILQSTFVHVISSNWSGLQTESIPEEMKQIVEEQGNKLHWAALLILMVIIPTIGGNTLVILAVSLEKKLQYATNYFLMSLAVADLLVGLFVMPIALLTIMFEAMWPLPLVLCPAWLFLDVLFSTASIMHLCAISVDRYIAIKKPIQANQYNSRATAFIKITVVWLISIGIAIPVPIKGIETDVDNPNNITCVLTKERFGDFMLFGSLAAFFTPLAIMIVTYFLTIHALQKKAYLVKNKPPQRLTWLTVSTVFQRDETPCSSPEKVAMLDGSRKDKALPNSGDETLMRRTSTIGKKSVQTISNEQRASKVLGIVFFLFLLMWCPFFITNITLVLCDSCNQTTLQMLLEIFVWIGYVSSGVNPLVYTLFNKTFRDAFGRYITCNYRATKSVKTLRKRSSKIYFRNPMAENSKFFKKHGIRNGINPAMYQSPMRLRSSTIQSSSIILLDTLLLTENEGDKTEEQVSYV
T2 sequence (P28223 whole entry): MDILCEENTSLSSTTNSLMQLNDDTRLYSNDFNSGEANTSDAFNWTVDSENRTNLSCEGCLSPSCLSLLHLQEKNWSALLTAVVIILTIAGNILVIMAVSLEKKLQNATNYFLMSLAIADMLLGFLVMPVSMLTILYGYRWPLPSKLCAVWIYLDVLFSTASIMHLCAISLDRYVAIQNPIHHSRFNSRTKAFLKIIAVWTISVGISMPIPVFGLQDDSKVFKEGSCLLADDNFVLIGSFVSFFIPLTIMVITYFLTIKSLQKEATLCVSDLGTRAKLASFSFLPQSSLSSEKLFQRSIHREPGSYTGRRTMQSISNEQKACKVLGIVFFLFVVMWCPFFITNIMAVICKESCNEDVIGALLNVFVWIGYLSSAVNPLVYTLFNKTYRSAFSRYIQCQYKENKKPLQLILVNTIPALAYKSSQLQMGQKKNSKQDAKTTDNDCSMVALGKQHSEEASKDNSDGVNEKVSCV

In the case of `CCn1cc(CCN(C)C)c2c(O)ccc(F)c21` [Compound O-3943, 3-(2-Dimethylaminoethyl)-7-fluoro-1-ethyl-1H-indol-4-ol], the melting point was in the range of 114 to 120 °C. On human 5-HT2C-INI, the response was half-maximal at 5.4 ± 2.5 nM (EC50) and the Emax is 100%. This compound showed an EC50 on 5-HT2A [1] of 12.9 nM. At 5-HT2B [2] (setting [7]), this compound yielded an EC50 of more than 10 µM. This compound gave a Ki at 5-HT2C of 9.1 ± 3.99 nM. The compound further registered an inhibition constant (Ki) at 5-HT2A [3] of 97 ± 35 nM. Besides, at 5-HT2B [4], the affinity corresponds to a Ki of 2.5 ± 0.84 nM.

In turn, `CN(C)CCc1cn(CCF)c2c(F)ccc(O)c12` [Compound O-3975, 3-(2-Dimethylaminoethyl)-7-fluoro-1-(2-fluoroethyl)-1H-indol-4-ol] had a melting point of 97 to 101 °C. At human 5-HT2C-INI, this compound returned an EC50 of more than 2000 nM. Further, a half-maximal response on 5-HT2A [1] (EC50) required 614 nM. This compound had an EC50 at 5-HT2B [2] (setting [7]) of more than 10 µM. At 5-HT2C, this compound showed a Ki of 7.74 ± 0.65 nM. The compound further returned an inhibition constant (Ki) on 5-HT2A [3] of 308 ± 61.4 nM. Also, affinity on 5-HT2B [4] was put at a Ki of 2.77 ± 0.31 nM.

Turning to `CN(C)CCc1cn(C)c2c(F)ccc(O)c12` [Compound O-3804, 3-(2-Dimethylaminoethyl)-7-fluoro-1-methyl-1H-indol-4-ol], the melting point lay within 134 to 138 °C. In data set [5] (10 mg/kg i.p.), the “% of Control (food consumption 60 min. after injection)” value was 114%, the “% of Control (food consumption 90 min. after injection)” value is reported as 96%, the “Mean food consumption 60 min. after injection: g (±SEM) Compound” value was 1.3 (.14) g and the “Mean food consumption 90 min. after injection: g (±SEM) Compound” value is 1.76 (.15) g. Moreover, in data set [5] (20 mg/kg i.p.), the “% of Control (food consumption 60 min. after injection)” value is 99%, the “% of Control (food consumption 90 min. after injection)” value is listed as 107%, the “Mean food consumption 60 min. after injection: g (±SEM) Compound” value was 1.48 (.19) g and the “Mean food consumption 90 min. after injection: g (±SEM) Compound” value is reported as 1.86 (.20) g. In data set [5] (30 mg/kg i.p.), the “% of Control (food consumption 60 min. after injection)” value stood at 56%, the “% of Control (food consumption 90 min. after injection)” value was 77%, the “Mean food consumption 60 min. after injection: g (±SEM) Compound” value was 0.79 (.09)* g and the “Mean food consumption 90 min. after injection: g (±SEM) Compound” value is 1.37 (.11) g. In [6] (5 mg/kg i.p. 5 minutes before inducer Serotonin), the “Average Number of Scratches 30 min. after injection” value came to 128.4. Also, the “Number of Scratches as Percentage of Control” value in data set [6] (5 mg/kg i.p.) stood at 34.2%. Besides, the “Average Number of Scratches 30 min. after injection” value in data set [6] (20 mg/kg i.p. 5 minutes before inducer Serotonin) is 12.8*. Moreover, the “Number of Scratches as Percentage of Control” value in data set [6] (20 mg/kg i.p.) was determined as 2.2%. Also, on human 5-HT2C-INI, a half-maximal response (EC50) required 0.517 nM and the Emax was 89.9%. Further, on 5-HT2A [1], a half-maximal effect (EC50) was put at 129 ± 1.44 nM and the “percent Vmax relative to serotonin at 100%, 5-HT2A” value was “(125.4% ± 6.225%)”. On 5-HT2B [2] (setting [7]), this compound registered an EC50 of 0.0354 ± 0.00131 µM. For the same compound, the “percent Vmax relative to serotonin at 100%, 5-HT2B” value on 5-HT2B [2] (value in brackets) was “(7.0 ± 0.92%)”. The compound further gave an inhibition constant (Ki) at 5-HT2C of 25.4 nM. At 5-HT2A [3], this compound had a Ki of 68.2 nM. The Ki at 5-HT2B [4] is 3.64 nM.

The compound `CN(C)CCc1cn(CC2CC2)c2cc(F)cc(O)c12` [Compound O-4287, 3-(2-Dimethylaminoethyl)-6-fluoro-1-cyclopropylmethyl-1H-indol-4-ol] gave a melting point of 110 to 112 °C. For the same compound, at human 5-HT2C-INI, the concentration for a half-maximal effect (EC50) was 1160 nM and the Emax is 41%. Also, at 5-HT2A [1], the EC50 was determined as 3740 nM and the “percent Vmax relative to serotonin at 100%, 5-HT2A” value was found to be 63%. Further, the “Functional Assay (EC50) 5-HT2B” value on 5-HT2B [2] (setting [7]) is “Inactive”.

The compound `CCCn1cc(CCN(C)C)c2c(O)ccc(F)c21` [Compound O-3952, 3-(2-Dimethylaminoethyl)-7-fluoro-1-propyl-1H-indol-4-ol] gave a melting point of 75 to 79 °C. Besides, at human 5-HT2C-INI, the concentration for a half-maximal effect (EC50) stood at 11 ± 4 nM and the Emax is 89%. Further, at 5-HT2A [1], the midpoint of the response, the EC50, lay at 1280 nM and the “percent Vmax relative to serotonin at 100%, 5-HT2A” value came to 103% +/− 7. For the same compound, on 5-HT2B [2] (setting [7]), the concentration for a half-maximal effect (EC50) is more than 10 µM. Besides, the affinity at 5-HT2C corresponds to a Ki of 10.5 ± 2.39 nM. The Ki at 5-HT2A [3] came out at 492 ± 79.3 nM. The affinity at 5-HT2B [4], expressed as Ki, was 2.79 ± 0.31 nM.

As usually defined, the EC50 is the concentration needed to bring the measured effect to its halfway point. Low readings indicate a more potent agent, high ones a less potent agent. For orientation: melting point means the temperature of the solid-liquid transition. Broadly, the Ki is the dissociation constant of the complex between target and ligand, obtained from inhibition or displacement. A lower Ki goes with tighter binding.
